This note sets out measurements from PMC4604124, “In Vitro Characterization of the Pharmacological Properties of the Anti-Cancer Chelator, Bp4eT, and Its Phase I Metabolites” (PLoS ONE, 2015).

Data set [1] relates to cancer cells (HL-60, MCF-7, HCT116, A549) and non-cancerous cells (H9c2, 3T3). Nature of the data set: MTT cytotoxicity assay, summary over the cell line panel. Format: cell-based. As for the experimental part:
(§1) For cytotoxicity experiments, cancer cells were seeded at a density of 5,000 (MCF-7), 10,000 (HL-60) or 2,000 cells/well (HCT116 and A549) in 96-well plates (TPP) for 24 h/37°C prior to the addition of examined agents. The non-cancerous cells, 3T3 and H9c2 cells, were cultured for 24 h/37°C in 96-well plates at a density of 10,000 cells/well, the medium was then changed to serum- and pyruvate-free DMEM (Sigma-Aldrich) and incubated with the cells for another 24 h/37°C. The cytotoxic effects of Bp4eT and its metabolites were studied at different concentrations after a 72 h/37°C incubation. In order to aid the dissolution of the lipophilic ligands, 0.1% dimethyl sulfoxide (v/v) (DMSO; Sigma-Aldrich) was present in the culture medium of all groups. At this concentration, DMSO had no effect on cellular proliferation or viability.
(§2) The viability of cells were determined using an MTT assay (Sigma-Aldrich) according to previously established methods. The optical density of soluble MTT was measured at λ = 570 nm, subtracting the λ = 690 nm background using a Tecan Infinite 200M plate reader (Tecan Group, Männedorf, Switzerland). The viability or proliferation of experimental groups was expressed as a percentage of the untreated controls (100%).
(§3) SigmaStat for Windows 3.5 (Systat Software, San Jose, CA, USA) statistical software package was utilized to analyze results. The data are expressed as the mean ± SD of a given number of experiments. Statistical significance was determined using a one-way ANOVA with a Bonferroni post-hoc test or Student’s t-test. The results were considered to be statistically significant when p < 0.05. The IC50 values were calculated using CalcuSyn 2.0 software (Biosoft, Cambridge, UK). Cell cycle analysis was evaluated using MultiCycle AV Software (Phoenix Flow Systems, San Diego, CA, USA).
In general terms: Tetrazolium dyes change colour on reduction, which living cells bring about.

Data set [2] concerns MCF-7 cells. Nature of the data set: Cellular 59Fe uptake from 59Fe2-transferrin. The following applies: for Uptake 59Fe, Ave: average of all replicates; for Uptake 59Fe, Ave / Uptake 59Fe: Control Ave = 100; for Uptake 59Fe: single replicate (three per date). Format: cell-based, human. Also noted: key to Uptake 59Fe, Ave / Uptake 59Fe: % of internalized 59Fe in untreated control cells. An excerpt: Human transferrin (Sigma) was labeled with ^56Fe or ^59Fe (PerkinElmer, Massachusetts, USA) to produce ^56Fe2-transferrin or ^59Fe2-transferrin (^59Fe2-Tf), respectively, with a final specific activity of 500 pCi/pmol Fe, as previously described. Unbound ^59Fe was removed by exhaustive vacuum dialysis against a large excess of 0.15 M NaCl buffered to pH 7.4 with 1.4% NaHCO3 by standard methods.
The ability of the chelators to prevent cellular ^59Fe uptake from ^59Fe2-transferrin was examined using standard techniques. In brief, confluent MCF-7 cells in 6-well plates were incubated with 0.75 μM ^59Fe2-Tf for 3 h/37°C in the presence of Bp4eT or its metabolites (25 μM). The cells were then washed four times with ice-cold PBS and the level of internalized ^59Fe was determined by incubating the cell monolayer for 30 min/4°C with the general protease, Pronase (1 mg/mL; Sigma-Aldrich). The cells were then removed from the monolayer with a plastic spatula on ice and centrifuged for 1 min/12,000 x g/4°C. The supernatant represents membrane-bound, Pronase-sensitive ^59Fe that was released by the protease, while the Pronase-insensitive fraction represents internalized ^59Fe. The amount of internalized ^59Fe was expressed as a percentage of ^59Fe internalized by control (untreated) cells.

Data set [3] relates to HL-60 human promyelocytic leukemia cells. As to the kind of experiment: MTT cytotoxicity assay, HL-60 cells. In kind it is cell-based. The following applies: for IC50: MTT. The protocol: as §1, §2, §3
Data set [4] concerns MCF-7 cells. Nature of the data set: Mitochondrial morphology, MitoTracker Green FM. In kind it is cell-based, human. The settings on record: 10 or 100 nM, 72 h. The protocol:
Markers used to assess autophagy/apoptosis/necrosis in MCF-7 cells and changes of lysosomal and mitochondrial morphology were observed using an Eclipse Ti inverted epifluorescence microscope (Nikon, Tokyo, Japan), that was equipped with a cooled digital camera Zyla 5.5 sCMOS (Andor Technology, Belfast, UK), and NIS-Elements C 4.1 software (Laboratory Imaging, Prague, Czech Republic). The MCF-7 cells were seeded in 6-well plates with cover slips on the bottom at a density of 150,000 cells/well and incubated as described above in the presence or absence of 10 or 100 nM Bp4eT.
To determine the effect of Bp4eT on mitochondrial morphology, the cells were incubated with MitoTracker® Green FM (0.25 μM; λex = 490 nm; λem = 516 nm; Molecular Probes) for 10 min/37°C. The cells were then washed with fresh medium and the images captured using the microscope described above.

The subject of data set [5] is MCF-7 cells. As to the kind of experiment: Viability (viabilita) used to normalise caspase activity.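 Note: compound tested at 100 nM.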 In kind it is cell-based, human. The following applies: kontrola = 100. An excerpt:
Supplement pone.0139929.s002.zip/caspases activity.xlsx, sheet "results_viability"

Several values for one entry are separate records, joined by “and”; a condition that tells them apart may be missing. Equal values may be shown once. Read-outs that look alike come from different tables or passages of the source.

As usually defined, the IC50 is the midpoint of a concentration-inhibition curve. For `CCNC(=S)NN=C(c1ccccc1)c1ccccn1` [Bp4eT, 2-benzoylpyridine 4-ethyl-3-thiosemicarbazone], the IC50 in data set [1] (HL-60, MCF-7 and HCT116 cells, 72 h, read-out: IC50, range over cell lines) was 3 to 15 nM; in data set [3] (HL-60, 10 000 b/j, single experiment (date), read-out: IC50 měřené), 2.84 nM and 3.65 nM and 4.08 nM; in data set [3] (Homo sapiens, HL-60, 72 h, HL-60, 72 h/37°C, mean ± SD, n ≥ 4, read-out: IC50) it was 3 ± 1 nM; in data set [3] (Homo sapiens, HL-60, HL-60, 10 000 b/j, průměr (mean), read-out: IC50 měřené) it was 3.48 nM; in data set [3] (Homo sapiens, HL-60, HL-60, 10 000 b/j, single experiment (date), read-out: IC50 měřené) it was 3.35 nM. Also, the “Therapeutic indices, range” value in data set [1] (towards HL-60, MCF-7 and HCT116 cancer cells) is reported as 34.9–436.3. The “Internalized 59Fe uptake, % of the control” value in data set [2] (25 μM, 3 h/37°C, MCF-7, 0.75 μM 59Fe2-Tf) is 11.5%. Moreover, in data set [2], the “Uptake 59Fe, Ave” value came out at 11.5476. In addition, the “Uptake 59Fe” value in data set [2] is 9.2904 and 11.2475 and 13.4264 and 10.306 and 10.873 and 13.9435 and 11.6905 and 10.1589 and 12.9919. Moreover, the “Therapeutic index, IC50 non-cancerous cells / IC50 neoplastic cells” value in data set [3] (3T3/HL-60) is on record as 436.3; in data set [3] (H9c2/HL-60), 174.7. Besides, the “MTT, relative to control (0 = 100)” value in data set [3] (HL-60, 10 000 b/j, 0.1 nM, průměr (mean)) was 98.01; in data set [3] (HL-60, 10 000 b/j, 0.1 nM, single experiment (date)), 96.1425 and 103.96 and 95.2755 and 95.4167 and 99.2528; in data set [3] (HL-60, 10 000 b/j, 0.3 nM, průměr (mean)), 96.66; in data set [3] (HL-60, 10 000 b/j, 0.3 nM, single experiment (date)), 99.4278 and 92.0645 and 96.8892 and 98.2749; in data set [3] (HL-60, 10 000 b/j, 1 nM, průměr (mean)), 97.15; in data set [3] (HL-60, 10 000 b/j, 1 nM, single experiment (date)) it was 95.2755 and 96.4389 and 98.8804 and 97.9877. Also, the “MTT, relative to control (0 = 100)” value was 62.98 in data set [3] (HL-60, 10 000 b/j, 3 nM, průměr (mean)); 50.186 and 52.1752 and 67.6874 and 81.8744 in data set [3] (HL-60, 10 000 b/j, 3 nM, single experiment (date)); 3.98 in data set [3] (HL-60, 10 000 b/j, 10 nM, průměr (mean)); 1.50 in data set [3] (HL-60, 10 000 b/j, 30 nM, průměr (mean)); 1.69 in data set [3] (HL-60, 10 000 b/j, 100 nM, průměr (mean)). Moreover, the Mitochondrial morphology result in data set [4] is “more swollen and enlarged”.
Consider `CCNC(=O)NN=C(c1ccccc1)c1ccccn1` [E-Bp4eS, 2-benzoylpyridine 4-ethylsemicarbazone], for which the “Uptake 59Fe, Ave” value in data set [2] stood at 105.146. The “Uptake 59Fe” value in data set [2] was 102.106 and 110.477 and 102.867 and 98.5761 and 110.59 and 101.139 and 107.081 and 112.704 and 100.772. For the same molecule, the viabilita in data set [5] (3 hodiny) worked out at 98.187; in data set [5] (24 hodin), 99.4673; in data set [5] (72 hodin), 97.81. Moreover, the “Therapeutic index, IC50 non-cancerous cells / IC50 neoplastic cells” value was above 6.6 in data set [3] (3T3/HL-60) and 5.9 in data set [3] (H9c2/HL-60). For the same molecule, the IC50 in data set [3] (HL-60, 72 h/37°C, mean ± SD, n ≥ 4, read-out: IC50) is 151000 ± 9100 nM; in data set [3] (HL-60, 10 000 b/j, single experiment (date), sheet E-Bp4eS, read-out: IC50), 159000 nM and 144000 nM and 141000 nM; in data set [3] (Homo sapiens, HL-60, HL-60, 10 000 b/j, průměr (mean), sheet E-Bp4eS, read-out: IC50) it was 150000 nM; in data set [3] (Homo sapiens, HL-60, HL-60, 10 000 b/j, single experiment (date), sheet E-Bp4eS, read-out: IC50), 158000 nM. The “MTT, relative to control (0 = 100)” value in data set [3] (HL-60, 10 000 b/j, 3 μM, průměr (mean), sheet E-Bp4eS) is 97.96; in data set [3] (HL-60, 10 000 b/j, 3 μM, single experiment (date), sheet E-Bp4eS) it was 100.761 and 104.358 and 95.5768 and 91.1569; in data set [3] (HL-60, 10 000 b/j, 10 μM, průměr (mean), sheet E-Bp4eS) it was 99.97; in data set [3] (HL-60, 10 000 b/j, 10 μM, single experiment (date), sheet E-Bp4eS) it was 101.567 and 98.1615 and 96.1949 and 103.964; in data set [3] (HL-60, 10 000 b/j, 30 μM, průměr (mean), sheet E-Bp4eS), 95.62; in data set [3] (HL-60, 10 000 b/j, 30 μM, single experiment (date), sheet E-Bp4eS), 99.0132 and 96.6154 and 90.9257 and 95.914. The “MTT, relative to control (0 = 100)” value in data set [3] (HL-60, 10 000 b/j, 100 μM, průměr (mean), sheet E-Bp4eS) was 79.54; in data set [3] (HL-60, 10 000 b/j, 100 μM, single experiment (date), sheet E-Bp4eS), 81.2266 and 75.7782 and 76.5508 and 84.6199; in data set [3] (HL-60, 10 000 b/j, 120 μM, průměr (mean), sheet E-Bp4eS), 74.92; in data set [3] (HL-60, 10 000 b/j, 120 μM, single experiment (date), sheet E-Bp4eS) it was 75.3051 and 80.9667 and 70.8568 and 72.5675; in data set [3] (HL-60, 10 000 b/j, 140 μM, průměr (mean), sheet E-Bp4eS) it was 62.34; in data set [3] (HL-60, 10 000 b/j, 140 μM, single experiment (date), sheet E-Bp4eS) it was 62.4842 and 69.381 and 45.4725 and 72.037. In addition, the “MTT, relative to control (0 = 100)” value in data set [3] (HL-60, 10 000 b/j, 150 μM, průměr (mean), sheet E-Bp4eS) amounted to 38.39; in data set [3] (HL-60, 10 000 b/j, 300 μM, průměr (mean), sheet E-Bp4eS), 3.81.
